≈ marks a conversion by molar mass, not a printed value.
Experiments:
Peptide deformylase = molecular target: T1, Peptide deformylase (Escherichia coli, UniProt Q9JN24); assay: Inhibition concentration against Escherichia coli peptide deformylase.
T1 sequence (Q9JN24 whole entry): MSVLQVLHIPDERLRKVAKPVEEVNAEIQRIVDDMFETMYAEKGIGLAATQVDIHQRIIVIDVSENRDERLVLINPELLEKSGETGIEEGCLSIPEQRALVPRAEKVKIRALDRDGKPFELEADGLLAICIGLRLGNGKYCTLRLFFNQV

Staphylococcus capitis = assay: Antibacterial activity against Staphylococcus capitis.; format: functional
Escherichia coli = assay: Antibacterial activity against Escherichia coli.; format: functional
[1] = Staphylococcus capitis, read-out: MIC
[2] = Escherichia coli, read-out: MIC

Compound	IC50 (Peptide deformylase) [nM]	MIC (Staphylococcus capitis; [1]) [µM]	MIC (Escherichia coli; [2]) [µM]	MIC (Staphylococcus capitis) [µM]	MIC (Escherichia coli) [µM]
CCCC[C@H](CN(O)C=O)C(=O)N[C@H](C(=O)N1CCN(C)CC1)C(C)(C)C	50	50 (≈ 19.2 µg/mL)	25 (≈ 9.61 µg/mL)		
CCCC[C@H](CN(O)C=O)C(=O)N[C@@H](CC(=O)OCc1ccccc1)C(=O)N(C)C	100	25 (≈ 10.5 µg/mL)	> 200		
CCCC[C@H](CN(O)C=O)C(=O)N[C@H](C(=O)N(C)C)C(C)(C)C (stereo in doubt; form 2)	40			>200	100 (≈ 32.9 µg/mL)
CCCC[C@H](CN(O)C=O)C(=O)N[C@@H](Cc1ccccc1)C(=O)N(C)C		50 (≈ 18.2 µg/mL)	100 (≈ 36.3 µg/mL)		
CCCC[C@H](CN(O)C=O)C(=O)N[C@H](C(=O)N1CCCC1)C(C)(C)C		25 (≈ 8.89 µg/mL)	25 (≈ 8.89 µg/mL)		
CCCC[C@H](CN(O)C=O)C(=O)N[C@H](C(=O)N(C)C1CCCCC1)C(C)(C)C		100 (≈ 39.8 µg/mL)	> 200		
CCCC[C@H](CN(O)C=O)C(=O)N[C@@H](Cc1ccc(O)cc1)C(=O)N(C)C	300	> 200	> 200		
CCCC[C@H](CN(O)C=O)C(=O)N[C@H](C(C)=O)C(C)(C)C	20	100 (≈ 30 µg/mL)	25 (≈ 7.51 µg/mL)		
CCCC[C@H](CN(O)C=O)C(=O)N[C@H](C(=O)O)C(C)(C)C	80	> 200	> 200		
CCCC[C@H](CN(O)C=O)C(=O)N[C@@H](CCCCN(C)C)C(=O)N(C)C	300	> 200	> 200		
CCCC[C@H](CN(O)C=O)C(=O)N[C@@H](CCC(=O)OCc1ccccc1)C(=O)N(C)C	20	200 (≈ 87.1 µg/mL)	> 200		
CCCC[C@H](CN(O)C=O)C(=O)N[C@@H](CCCNC(=N)N)C(=O)N(C)C	20	50 (≈ 18.6 µg/mL)	> 200		
CCCC[C@H](CN(O)C=O)C(=O)N[C@@H](CC1CCCCC1)C(=O)N(C)C	30	100 (≈ 37 µg/mL)	100 (≈ 37 µg/mL)		
CCCC[C@H](CN(O)C=O)C(=O)N[C@H](C(=O)N(C)C)C(C)(C)C (stereo in doubt; form 1)	7				
CCCC[C@H](CN(O)C=O)C(=O)N[C@H](C(=O)N1CCC(C(=O)OCC)CC1)C(C)(C)C	10	25 (≈ 11 µg/mL)	> 200		
CCCC[C@H](CN(O)C=O)C(=O)N[C@H](C(=O)N(C)C)C(C)(C)SC		25 (≈ 9.04 µg/mL)	25 (≈ 9.04 µg/mL)		
CCCC[C@H](CN(O)C=O)C(=O)N[C@H](C(=O)N1CCCC2CCCCC21)C(C)(C)C (some centres undefined)		50 (≈ 21.2 µg/mL)	> 200		
CCCC[C@H](CN(O)C=O)C(=O)N[C@@H](CSCc1ccccc1)C(=O)N(C)C	70	12.5 (≈ 5.12 µg/mL)	200 (≈ 81.9 µg/mL)		
CCCC[C@H](CN(O)C=O)C(=O)N[C@H](C(=O)N1CCC(C(C)=O)CC1)C(C)(C)C	10	25 (≈ 10.3 µg/mL)	100 (≈ 41.2 µg/mL)		

Compound	IC50 (Peptide deformylase) [nM]	MIC (Staphylococcus capitis; [1]) [µM]	MIC (Escherichia coli; [2]) [µM]	MIC (Staphylococcus capitis) [µM]	MIC (Escherichia coli) [µM]
CCCC[C@H](CN(O)C=O)C(=O)NCC(=O)N(C)C		> 200	50 (≈ 13.7 µg/mL)		
CCCC[C@H](CN(O)C=O)C(=O)N[C@H](C(=O)N(C)C)C(C)CC (some centres undefined)	20	12.5 (≈ 4.12 µg/mL)	25 (≈ 8.24 µg/mL)		
CCCC[C@H](CN(O)C=O)C(=O)N[C@@H](CC(C)C)C(=O)N(C)C	20	50 (≈ 16.5 µg/mL)	50 (≈ 16.5 µg/mL)		
CCCC[C@H](CN(O)C=O)C(=O)N1CCC[C@H]1C(=O)N(C)C	400	50 (≈ 15.7 µg/mL)	> 200		
CCCC[C@H](CN(O)C=O)C(=O)N[C@H](C(=O)N1CCC(Cc2ccccc2)CC1)C(C)(C)C	20	6.25 (≈ 2.87 µg/mL)	200 (≈ 91.9 µg/mL)		
CCCC[C@H](CN(O)C=O)C(=O)N[C@H](C(=O)N1CCCc2ccccc21)C(C)(C)C	9	50 (≈ 20.9 µg/mL)	50 (≈ 20.9 µg/mL)		
CCCC[C@H](CN(O)C=O)C(=O)N[C@@H](C)C(=O)N(C)C	40	100 (≈ 28.7 µg/mL)	25 (≈ 7.18 µg/mL)		
CCCC[C@H](CN(O)C=O)C(=O)N[C@@H](CO)C(=O)N(C)C		50 (≈ 15.2 µg/mL)	100 (≈ 30.3 µg/mL)		
CCCC[C@H](CN(O)C=O)C(=O)N[C@@H](Cc1ccc(Cl)cc1)C(=O)N(C)C	50	100 (≈ 39.8 µg/mL)	> 200		
CCCC[C@H](CN(O)C=O)C(=O)N[C@H](C(=O)N(C)C)C(C)C	20	25 (≈ 7.89 µg/mL)	25 (≈ 7.89 µg/mL)		
CCCC[C@H](CN(O)C=O)C(=O)N[C@H](C(=O)N(CCc1ccccc1)Cc1ccccc1)C(C)(C)C	90	100 (≈ 49.6 µg/mL)	> 200		
CCCC[C@H](CN(O)C=O)C(=O)N[C@H](C(=O)N1CCOCC1)C(C)(C)C	20	25 (≈ 9.29 µg/mL)	25 (≈ 9.29 µg/mL)		
CCCC[C@H](CN(O)C=O)C(=O)N[C@@H](CCCCN)C(=O)N(C)C	200	> 200	> 200		
CCCC[C@H](CN(O)C=O)C(=O)N[C@H](C(=O)OC)C(C)(C)C	30	200 (≈ 63.3 µg/mL)	50 (≈ 15.8 µg/mL)		
CCCC[C@H](CN(O)C=O)C(=O)N[C@H](C(=O)N(C)C)C(C)(C)O		25 (≈ 8.29 µg/mL)	12.5 (≈ 4.14 µg/mL)		
CCCC[C@H](CN(O)C=O)C(=O)N1Cc2ccccc2C[C@H]1C(=O)N(C)C		> 200	> 200		
CCCC[C@H](CN(O)C=O)C(=O)N[C@H](C(=O)N1CCC(C)CC1)C(C)(C)C	10	50 (≈ 19.2 µg/mL)	100 (≈ 38.4 µg/mL)		
CCCC[C@H](CN(O)C=O)C(=O)N[C@H](C(=O)N(C)C)C(C)(C)OC		100 (≈ 34.5 µg/mL)	25 (≈ 8.64 µg/mL)		
